Measured values from publication PMC9785606, “Design and Synthesis of Novel Phenylahistin Derivatives Based on Co-Crystal Structures as Potent Microtubule Inhibitors for Anti-Cancer Therapy” (Marine Drugs, 2022).
Marks after values point to notes of the source that are not given here.

Columns and labels:
[1] = system: H22 hepatoma carcinoma cells transplanted tumor; assay: H22 subcutaneous transplanted tumor model, intravenous administration; conditions: for Tumor Volume (D15): 14 consecutive days; for Tumor Volume (D1): D1 (baseline), mean ± SD; for Tumor Weight: excised at end of administration; for IR (tumor weight inhibition rate): IR = (1 − TWt/TWc) × 100%
Description: The anticancer effect of the compound 15p was further evaluated against H22 tumor-bearing mice models by intravenous injection at doses of 2 mg/kg, or 4 mg/kg, two or three times a week, and for 14 consecutive days. Docetaxel (10 mg/kg), plinabulin (4 mg/kg), and cyclophosphamide (20 mg/kg) were used as the positive controls.
Balb/c mice (4–6 weeks old, 16–18 g) were purchased from Shanghai Sippr-BK laboratory animal Co. Ltd. The animal study protocol was approved by Institutional Review Board of Science and Technology Division of Linyi University (review opinion on behalf of the Ethics Committee) (The protocol code is LYU20220107, provided on 10 March 2022). H22 cells were grown in RPMI-1640 midium supplemented with 10% fetal bovine serum, and maintained at 37 °C in humidified 5% CO2. Cells were passaged when they reached 70–80% confluence. Viable H22 cells (1 × 10^7 cells/0.2 ml 0.9% sodium chloride) were injected into the peritoneal cavity of BALB/C mice to trigger ascitic cell growth. Later, cells were harvested and suspended. H22 cancer cells (2 × 10^7 cells/0.1 ml 0.9% sodium chloride cells) were subcutaneously injected into the right flank of each mouse. After implantation, the tumor size was measured with an electronic caliper twice a week, and the tumor volume was calculated according to the following formula: tumor volume (mm^3) = 0.5 × length × width^2. When the tumor volume reached about 130 mm^3, the xenograft tumor-bearing BALB/C mice were randomly placed into six groups at 10 mice per group: vehicle, plinabulin (4 mg/kg), 15p ([…]), 15p ([…]), cyclophosphamide (20 mg/kg) and docetaxel (10 mg/kg) groups. Docetaxel, plinabulin, and cyclophosphamide were chosen as positive control drug. The reference compound docetaxel and cyclophosphamide were completely dissolved in isotonic saline. […] The solution of compound 15p was diluted with the concentrated solution and in isotonic saline at a calculated ratio. The solutions of plinabulin were made up according to similar methods. The mice received intravenous administration (iv) every two or three days for consecutive 14 days. The tumor volumes and the body weights were recorded every two or three days after treatment. At the end of the administration period, the animals were euthanized by dislocation, and the tumor bulks were peeled off conforming to the Guide for the Animal use and Management of Shanghai Medicilon Biological Medicine Co. Ltd. The tumor volume was calculated according to the Principles of Non-clinical Research Techniques for Anti-tumor Drugs of Cytotoxic Drugs by China Food and Drug Administration.

[2] = system: colon cancer HT-29 cell line; assay: MTT cytotoxicity assay, colon cancer HT-29 cell line; type: cell-based; conditions: Homo sapiens, 72 h, mean ± SD
Description: (§1) Human cancer cell lines (lung cancer NCI-H460 cell line, pancreatic cancer BxPC-3 cell line, colon cancer HT-29 cell line) were purchased from American Type Cell Culture Collection (ATCC, Manassas, VA, USA). Cells were maintained in RPMI-1640 medium supplemented with 10% (v/v) heat-inactivated fetal bovine serum, penicillin-streptomycin (100 U/mL-100 […]) at 37 °C in a humidified atmosphere (5% CO2–95% air). All tested derivatives were dissolved in 100% cell culture grade DMSO. Cells (3 × 10^3 per well) were seeded in 96-well plates for 24 h. Then, cells were treated with the tested compounds in six concentrations for 72 h. Cell viability was assessed by MTT assay. The absorbance at 490 nm was measured with a Microplate Reader (Molecular Devices, Silicon Valley, CA, USA). The data were analyzed by Origin 8.5 (OriginLab, Northampton, MA, USA).

[3] = system: human lung cancer NCI-H460 cell line; assay: MTT cytotoxicity assay, lung cancer NCI-H460 cell line; type: cell-based; conditions: mean ± SD
Description: as §1

[4] = system: pancreatic cancer BxPC-3 cell line; assay: MTT cytotoxicity assay, pancreatic cancer BxPC-3 cell line; type: cell-based; conditions: Homo sapiens, 72 h, mean ± SD
Description: as §1

[5] = system: microtubules in NCI-H460 cells; assay: Immunofluorescence assay of microtubules (β-tubulin/DAPI staining); type: cell-based, human; conditions: 24 h
Description: To further explore the effect of phenylahistin derivatives 1 and 15p on microtubules in cancer cells, an immunofluorescence assay was performed. […] The inhibitory activities were consistent with the previously shown anti-proliferative activities.
NCI-H460 cells were seeded in 24-well plate (with coverslips plated) at the density of 5 × 10^4 cells. […] Then, cells were fixed with 4% cold paraformaldehyde at 4 °C for 15 min and then permeabilized in 0.05% Triton X-100 for 10 min. The cells were blocked in 1% BSA for 30 min. Microtubules were detected by incubation with a monoclonal anti-β-tubulin (β-tubulin antibody was obtained from Servicebio, Wuhan, China.) at 4 °C for 12 h. Subsequently, the cells were washed with PBS and incubated with a FITC-conjugated anti-mouse IgG antibody. Nuclei were stained with DAPI (G1012, Servicebio, Wuhan, China). The coverslips were visualized under fluorescence microscope (Nikon Eclipse C1, Nikon, Japan) and an image-forming system (Nikon DS-U3, Nikon, Tokyo, Japan).

[6] = 20 mg/kg iv, listed as cyclophosphamide
[7] = 4 mg/kg iv, listed as plinabulin
[8] = 10 mg/kg iv, listed as docetaxel

Compound	IC50 ([3]; Homo sapiens, NCI-H460, 72 h) [nM]	melting point [°C]	further results
O=P1(N(CCCl)CCCl)NCCCO1 (stereo not shown) [Cyclophosphamide]	–	–	Body weight compared to the control group ([1]; 20 mg/kg iv): decreased the body weights; Tumor Volume (D15) ([1]; 20 mg/kg iv): 687.2 ± 288.6* mm^3; Tumor Volume (D15) [1, 6]: 687.2 mm^3; Tumor Volume (D1) ([1]; 20 mg/kg iv): 105.1 ± 30.26 mm^3; Tumor Weight ([1]; 20 mg/kg iv): 0.42 ± 0.24 g; Tumor Weight [1, 6]: 0.42 g; IR (tumor weight inhibition rate) ([1]; 20 mg/kg iv): 62.6%
C#CCn1cnc(/C=c2\[nH]c(=O)/c(=C/c3cccc(C(=O)c4ccc(F)cc4)c3)[nH]c2=O)c1C(C)C [15q]	1.49 ± 0.31	150 to 152	IC50 [2]: 0.67 ± 0.035 nM; IC50 [4]: 1.15 ± 0.042 nM
CC(C)(C)c1[nH]cnc1/C=c1\[nH]c(=O)/c(=C/c2ccccc2)[nH]c1=O [Plinabulin]	26.2 ± 3.2	–	IC50 [2]: 6.6 ± 1.6 nM; Effect on microtubule networks ([5]; 10 nM): microtubule networks were damaged; IC50 [4]: 5.8 ± 0.2 nM; Tumor Volume (D15) ([1]; 4 mg/kg iv): 1425.3 ± 411.2 mm^3; Tumor Volume (D15) [1, 7]: 1425.3 mm^3; Tumor Volume (D1) ([1]; 4 mg/kg iv): 104.7 ± 26.66 mm^3; Tumor Weight ([1]; 4 mg/kg iv): 0.77 ± 0.31 g; Tumor Weight [1, 7]: 0.77 g; IR (tumor weight inhibition rate) ([1]; 4 mg/kg iv): 31.9%
CCn1cnc(/C=c2\[nH]c(=O)/c(=C/c3cccc(C(=O)c4ccc(F)cc4)c3)[nH]c2=O)c1C(C)C [15f]	2.01 ± 0.19	234 to 236	–
CC(C)(C)c1[nH]cnc1/C=c1\[nH]c(=O)/c(=C/c2cccc(C(=O)c3ccc(F)cc3)c2)[nH]c1=O [compound 1]	–	–	Effect on microtubule networks ([5]; 2 nM): microtubule networks were damaged
CCCCn1cnc(/C=c2\[nH]c(=O)/c(=C/c3cccc(C(=O)c4ccc(F)cc4)c3)[nH]c2=O)c1C(C)C [15k]	0.94 ± 0.11	198 to 201	–
CCn1cnc(/C=c2\[nH]c(=O)/c(=C/c3cccc(Oc4ccc(F)cc4)c3)[nH]c2=O)c1C(C)C [15e]	12.2 ± 0.27	195 to 198	–
Cc1c(/C=c2\[nH]c(=O)/c(=C/c3cccc(C(=O)c4ccc(F)cc4)c3)[nH]c2=O)ncn1CCCNC(=O)OC(C)(C)C [15n]	145.7 ± 0.27	206 to 208	–
CC(C)c1c(/C=c2\[nH]c(=O)/c(=C/c3cccc(C(=O)c4ccc(F)cc4)c3)[nH]c2=O)ncn1C [15c]	3.65 ± 0.18	225 to 227	–
Cc1c(/C=c2\[nH]c(=O)/c(=C/c3cccc(C(=O)c4ccc(F)cc4)c3)[nH]c2=O)ncn1CCCN [16c]	103 ± 11.7	247 to 248	–
CC(C)c1c(/C=c2\[nH]c(=O)/c(=C/c3cccc(C(=O)c4ccc(F)cc4)c3)[nH]c2=O)ncn1CCCNC(=O)OC(C)(C)C [15o]	12.7 ± 0.71	179 to 180	–
CCCn1cnc(/C=c2\[nH]c(=O)/c(=C/c3cccc(Oc4ccc(F)cc4)c3)[nH]c2=O)c1C(C)C [15h]	5.4 ± 0.15	201 to 203	–
CC(C)c1c(/C=c2\[nH]c(=O)/c(=C/c3cccc(Oc4ccc(F)cc4)c3)[nH]c2=O)ncn1C [15b]	40.4 ± 0.82	218 to 219	–
Cc1c(/C=c2\[nH]c(=O)/c(=C/c3cccc(C(=O)c4ccc(F)cc4)c3)[nH]c2=O)ncn1CCNC(=O)OC(C)(C)C [15l]	105 ± 11.7	189 to 191	–
Cc1c(/C=c2\[nH]c(=O)/c(=C/c3cccc(C(=O)c4ccc(F)cc4)c3)[nH]c2=O)ncn1CCN [16a]	33.4 ± 9.59	180 to 182	–
CCn1cnc(/C=c2\[nH]c(=O)/c(=C/c3cccc(C(=O)c4ccc(F)cc4)c3)[nH]c2=O)c1C [15d]	16.9 ± 1.5	227 to 229	–
CCCn1cnc(/C=c2\[nH]c(=O)/c(=C/c3cccc(C(=O)c4ccc(F)cc4)c3)[nH]c2=O)c1C(C)C [15i]	1.67 ± 0.15	200 to 202	–
Cc1c(/C=c2\[nH]c(=O)/c(=C/c3cccc(C(=O)c4ccc(F)cc4)c3)[nH]c2=O)ncn1C [15a]	21.1	224 to 226	IC50 ([3]; 72 h): 21.1 ± 1.3 nM
CC(C)c1c(/C=c2\[nH]c(=O)/c(=C/c3cccc(C(=O)c4ccc(F)cc4)c3)[nH]c2=O)ncn1CCNC(=O)OC(C)(C)C [15m]	27.3 ± 1.32	204 to 206	–
CC(=O)O[C@@]12CO[C@@H]1C[C@H](O)[C@@]1(C)C(=O)[C@H](O)C3=C(C)[C@@H](OC(=O)[C@H](O)[C@@H](NC(=O)OC(C)(C)C)c4ccccc4)C[C@@](O)([C@@H](OC(=O)c4ccccc4)[C@H]21)C3(C)C [Docetaxel]	–	–	Tumor Volume (D15) ([1]; 10 mg/kg iv): 903.6 ± 421.7* mm^3; Tumor Volume (D15) [1, 8]: 903.6 mm^3; Tumor Volume (D1) ([1]; 10 mg/kg iv): 103.6 ± 30.75 mm^3; Tumor Weight ([1]; 10 mg/kg iv): 0.55 ± 0.22 g; Tumor Weight [1, 8]: 0.55 g; IR (tumor weight inhibition rate) ([1]; 10 mg/kg iv): 51.6%
CC(C)c1c(/C=c2\[nH]c(=O)/c(=C/c3cccc(C(=O)c4ccc(F)cc4)c3)[nH]c2=O)ncn1CCCN [16d]	5.38 ± 1.46	199 to 201	IC50 [2]: 2.45 ± 0.42 nM; IC50 [4]: 2.35 ± 1.75 nM
CCCn1cnc(/C=c2\[nH]c(=O)/c(=C/c3cccc(C(=O)c4ccc(F)cc4)c3)[nH]c2=O)c1C [15g]	4.93 ± 0.25	214 to 216	–
CC(C)c1c(/C=c2\[nH]c(=O)/c(=C/c3cccc(C(=O)c4ccc(F)cc4)c3)[nH]c2=O)ncn1CCN [16b]	11.3	190 to 192	IC50 [2]: 5.92 ± 0.39 nM; IC50 ([3]; 72 h): 11.3 ± 3.45 nM; IC50 [4]: 3.27 ± 0.09 nM
